Results reported in paper PMC9867837 (Cancer letters, 2022).
≈ marks a conversion by molar mass, not a printed value. Where “and” joins values, the source holds several entries; their conditions need not be identical. Equal values may be shown once. Read-outs that look alike come from different tables or passages of the source.

Tests used:
[1] = test system: normal human mesothelial cells; assay: CyQuant viable cell number assay, normal mesothelial cells; type: cell-based; details: 72 h, read-out: IC50 viable cell numbers, normal human mesothelial cells
Method: (§1) CyQuant assay was performed to evaluate compounds as previously reported. Details are presented in Supplementary Information, “Methods”. […]
(§2) 1.2.6. Cell viability assays
(§3) CyQuant assay was performed to evaluate compounds as previously reported [1 -3] . Briefly, cells (5 x 10^3 per well, 100 µl) in culture in 96-well plates were treated once with 0 -10 µM concentrations of H120, H105, […]
(§4) concentration of H182 for 6 h and then treated with 0- 100 nM docetaxel or 0-20 µM cisplatin for a total of 72 h. Viable cell numbers were assessed by a CyQuant cell proliferation kit according to the manufacturer’s instructions (Thermo/Life Technologies Corp, Carlsbad, CA). Viable cell numbers were normalized to that of DMSO (control)-treated samples. […]

MDA-MB-231 cells = assay: CyQuant viable cell number assay, MDA-MB-231; type: cell-based, human; details: Homo sapiens, MDA-MB-231, read-out: IC50 viable cell numbers, MDA-MB-231; CyQuant, 72 h
Method: as §1, §2, §3, §4

[2] = biological target: Stat5:Stat5 DNA-binding activity; assay: EMSA of Stat5:Stat5 DNA-binding activity in nuclear extracts of EGF-stimulated NIH3T3/hEGFR; type: biochemical, mouse; details: Fig. 1C, MGFe probe, 30 min
Method: These studies were carried out as previously described using the ^32P-labeled oligonucleotide probes, hSIE (high affinity sis-inducible element from the c-fos gene, m67 variant, 5^′-[…]) that binds Stat1 and Stat3 [11, 12] and the mammary gland factor element (MGFe) from the bovine β–casein gene promoter (sense strand, 5^′-[…]) that binds Stat5 and Stat1 [11, 12]. Details are presented in Supplementary Information, “Methods”. […]
min, prior to incubation with the radiolabeled probe for 30 min at 30 °C and subjecting to EMSA analysis.
In another case, the nuclear extract was pre-incubated with the radiolabeled probe for 30 min at 30 °C prior to incubation with increasing concentration of H182 at room temperature for 30 min and subjecting to EMSA analysis. Bands corresponding to Stats DNA- binding activities were scanned and quantified using ImageJ and plotted as a percentage of control (vehicle) against the concentration of the inhibitor, from which the IC50 values were derived .

HCC1937 cells = assay: CyQuant viable cell number assay, HCC1937; type: cell-based, human; details: read-out: IC50 viable cell numbers, HCC1937
Method: as §1, §2, §3, §4

Solubility = type: physicochemical
Method: Solubility, human (HLM) and mouse liver microsomal (MLM), and plasma stability studies were performed by Eurofins Cerep Panlabs and Eurofin Discovery Services (www.eurofins.com/PharmaDiscovery), while protein binding studies were performed by Sanford Burnham Prebys Chemical Biology & Drug Discovery Core using standard protocols.

pY705Stat3 = biological target: T1, pY705Stat3 (Homo sapiens, UniProt P40763); assay: Western blotting for pY705Stat3 in treated breast cancer cells; type: cell-based; details: for Effect on constitutive Stat3 Tyr phosphorylation (pYStat3) in cells: MDA-MB-468 and MDA-MB-231, 0–5 μM, 1 or 2 h
T1 construct: endogenous in cells
T1 sequence (P40763 whole entry): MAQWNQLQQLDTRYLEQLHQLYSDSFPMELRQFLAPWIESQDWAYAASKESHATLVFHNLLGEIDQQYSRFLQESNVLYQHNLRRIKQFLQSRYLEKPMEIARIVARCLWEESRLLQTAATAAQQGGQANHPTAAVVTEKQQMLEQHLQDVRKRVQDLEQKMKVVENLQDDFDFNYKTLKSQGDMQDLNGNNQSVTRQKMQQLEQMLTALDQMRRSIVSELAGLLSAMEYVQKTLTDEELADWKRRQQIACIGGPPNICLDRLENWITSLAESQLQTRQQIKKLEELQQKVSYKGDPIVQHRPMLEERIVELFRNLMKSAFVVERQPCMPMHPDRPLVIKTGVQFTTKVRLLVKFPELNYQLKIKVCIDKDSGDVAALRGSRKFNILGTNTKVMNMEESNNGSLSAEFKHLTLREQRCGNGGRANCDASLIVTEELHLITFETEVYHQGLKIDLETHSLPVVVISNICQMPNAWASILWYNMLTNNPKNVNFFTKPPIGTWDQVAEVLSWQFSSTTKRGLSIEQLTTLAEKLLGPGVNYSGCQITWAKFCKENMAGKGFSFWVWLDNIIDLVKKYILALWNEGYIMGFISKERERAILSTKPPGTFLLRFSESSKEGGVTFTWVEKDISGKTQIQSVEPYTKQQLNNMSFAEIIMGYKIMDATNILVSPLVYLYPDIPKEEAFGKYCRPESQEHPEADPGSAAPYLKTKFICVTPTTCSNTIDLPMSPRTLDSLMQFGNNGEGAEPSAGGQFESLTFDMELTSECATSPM
Method: These studies were performed as previously described. Details are presented in Supplementary Information, “Methods”.
(§5) Nuclear extracts and whole-cell lysates were prepared, and samples of equal total protein were subjected to Stat3 DNA-binding assay/EMSA analysis using the hSIE probe, or to SDS/PAGE and Western blotting analysis for pY705Stat3, Stat3, or GAPDH [11, 12]. […] Depending on the concentration (1, 3, or 5 μM), the inhibitory effects of the azetidine compounds were observed relatively early, at 30–60 min, on both Stat3 DNA-binding activity (Fig. 4C) and Tyr phosphorylation (Fig. 4D, pY705Stat3).
During confluence of cultured cells, the cell-to-cell adhesion and cadherin engagement trigger increased Tyr705Stat3 phosphorylation in a variety of cell lines. To investigate the impact of cell-to-cell adhesion and cadherin engagement, parallel studies were conducted in which cells in culture were untreated or treated with 1 or 2 μM H182 for 0.5–48 h, and whole-cell lysates prepared and immunoprobed for pTyr705Stat3. […] After 48-h incubation, the cell confluency of the DMSO-treated samples reached to around 60% for MDA-MB-468 cells and 80% for MDA-MB-231 cells. […] In the untreated cells, Stat3 (red punctate) staining was predominantly localized in the nucleus of the tumor cells, with weak presence in the cytoplasm (Fig. 4F, 0, Stat3, red merged with blue DAPI nuclear staining). […] Total Stat3 protein levels in all of these studies were unchanged, and GAPDH, tubulin or β-actin levels show equal protein loading. The percent changes induced by H182 treatment on Stat3 DNA-binding activity and phosphorylation in the treated cells are shown.
These studies were performed as previously described [1 -3] . Briefly, snap-frozen tumor tissues or cultured cells treated or not were harvested and whole-cell or tissue lysates were prepared in radioimmunoprecipitation assay (RIPA) buffer. Samples of equal total protein were subjected to SDS - PAGE and immunoblotting analysis. Primary antibodies used were anti- Stat3, pY705-Stat3, pS727Stat3, […]
Akt, pT202/Y204Erk1/2 (p44/42), Erk1/2, PARP , caspase 3, c-Myc, survivin, VEGF, β-actin, α/β-tubulin, and GAPDH. For the studies of the effects of cell density and confluence on pY705Stat3, cells were seeded […] in culture dishes. The next day, cells were untreated (DMSO control, […]
0.1%) or treated at the same time with 1 or 2 µM H182, allowed to incubate for the indicated time and then harvested for whole-cell lysate preparation and SDS -PAGE / immunoblotting analy sis. After 48-h incubation, the cell confluency of the DMSO-treated samples reached to around 60% for MDA-MB -468 cells and 80% for MDA- MB-231 cells. […]

Stat3 = Stat3 (Homo sapiens, UniProt P40763); assay: EMSA of constitutive Stat3 DNA-binding activity in nuclear extracts of treated breast cancer cells; type: cell-based; design: endogenous in cells; details: MDA-MB-468 and MDA-MB-231, 0–5 μM, 1 or 2 h
Sequence of Stat3 (P40763 whole entry): as above
Method: These studies were carried out as previously described using the ^32P-labeled oligonucleotide probes, hSIE (high affinity sis-inducible element from the c-fos gene, m67 variant, 5^′-[…]) that binds Stat1 and Stat3 [11, 12] and the mammary gland factor element (MGFe) from the bovine β–casein gene promoter (sense strand, 5^′-[…]) that binds Stat5 and Stat1 [11, 12]. Details are presented in Supplementary Information, “Methods”.
as §5

[3] = aqueous buffer, PBS pH 7.4, read-out: Solubility PBS pH 7.4

SMILES	IC50 [1] [µM]	IC50 (MDA-MB-231 cells) [µM]	IC50 [2] [µM]	IC50 (HCC1937 cells; 72 h) [µM]	IC50 (HCC1937 cells; Homo sapiens, HCC1937, 72 h) [µM]	solubility (Solubility; [3]) [µg/mL]	solubility (Solubility; simulated gastric fluid, read-out: Solubility SGF)	solubility (Solubility; simulated intestinal fluid, fassgf or other biorelevant, read-out: Solubility SIF) [µg/mL]	Duration of inhibition of Stat3 activation (pY705Stat3) (pY705Stat3; 3 μM H182)	Effect on constitutive Stat3 Tyr phosphorylation (pYStat3) in cells (pY705Stat3)	Effect on EGF-induced pY705Stat3 (pY705Stat3; MDA-MB-468 cells, 1–3 μM H182)	Effect on constitutive Stat3 DNA-binding activity in cells (Stat3)	Solubility SGF (Solubility; simulated gastric fluid) [µg/mL]	Solubility SIF (Solubility; simulated intestinal fluid) [µg/mL]
O=C([C@H]1CCN1S(=O)(=O)c1c(F)c(F)c(F)c(F)c1F)N(Cc1ccc(C2CCCCC2)cn1)c1ccc2c(=O)[nH]ncc2c1 [Compound H182]	4.9 to 9.2	1	19.1	3	3.6 to 4.3	3 (≈ 4.63 µM)	130 µg/mL and 132 µg/mL	128 (≈ 198 µM)	sustained inhibition of Stat3 activation for up to 48 h	dose-dependent inhibition	inhibited EGF-induced pY705Stat3 in MDA-MB-468 cells in a dose-dependent manner	dose-dependent inhibition		
O=C([C@H]1CCN1S(=O)(=O)c1c(F)c(F)c(F)c(F)c1F)N(Cc1ccc(C2CCCCC2)cn1)c1ccc2c(=O)[nH]cnc2c1 [Compound H172]	4.9 to 9.2	3.3	20	4.8	3.6 to 4.3	6.3 (≈ 9.73 µM)				dose-dependent inhibition		dose-dependent inhibition	104 (≈ 161 µM)	123 (≈ 190 µM)
